Source: patent US7569594B2, “Analogs of leucascandrolide A” (The University of Chicago, priority 2005, dated 2009)

Legend:
[1] = system: A549, PC3 and HCT116 cells; test: Cell Growth/Viability Assays (CellTiter-Glo); format: cell-based; conditions: Homo sapiens; 48 h incubation; cancer cells
Procedure: Cell Growth/Viability Assays. All assays were performed using at least three replicate wells for each compound concentration tested. Cells were seeded in 96-well white plates at the density of 1000 cells/well in 100 μL of the appropriate cell culture media. Adherent A549, PC3 and HCT116 cells were allowed to attach and grow for 24 h and then treated with 30 μL of the solution of a compound and incubated further for 48 h. After incubation, cell viability was determined using a luminescence-based commercial kit (CellTiter-Glo, Promega) and luminescence was analyzed using a Wallac Victor III plate reader. Compound concentration that gave 50% reduction in cell viability when compared with untreated control cells was calculated from sigmoidal plots of cell viability versus drug concentration. To measure cell growth inhibition, similar viability assays were performed twice: at 0 h and after 48 h incubation. And then change in number of viable cells was measured and calculated from sigmoidal plots.
Biological Activity—Using methods similar to that described above, the following compounds were tested.

Yeast = Yeast activity; format: cell-based
[2] = system: human A549 non-small lung caner cells; conditions: cited from earlier work
[3] = system: HCT-116 colon cancer cells; conditions: HCT-116 cells; cited from earlier work
[4] = system: W303 strain of yeast S. cerevisiae; conditions: 11.2 mg per disk; cited from earlier work

SMILES | GI50 [1] [nM] | Yeast: Active/Inactive (Yeast) | GI50 [2] [nM] | GI50 [3] [nM] | inhibition diameter per disk [4] [mm]
COC(=O)NC/C=C\c1nc(CC/C=C\C(=O)O[C@@H]2CC3CC(=O)O[C@H](/C=C/CC(C)C)CC4CCCC(C[C@H](OC)CC(C2)O3)O4)co1 (some centres unmarked) | 10 to 100 | Yeast: Active |  |  | 
COC(=O)NC/C=C\c1nc(CC/C=C\C(=O)O[C@H]2CC3CC(=O)O[C@@H](CCCC(C)C)CC4CCCC(C[C@@H](OC)CC(C2)O3)O4)co1 (mixture of isomers) [racemic JJ-2-96] | 1 to 10 | Yeast: Active |  |  | 
CCCCC[C@H]1CC2CCCC(C[C@@H](OC)CC3C[C@@H](OC(=O)/C=C\CCc4coc(/C=C\CNC(=O)OC)n4)CC(CC(=O)O1)O3)O2 (mixture of isomers) [racemic JJ-2-173] | 1 to 10 | Yeast: Active |  |  | 
COC(=O)NC/C=C\c1nc(CC/C=C\C(=O)O[C@H]2CC3CC(=O)O[C@@H](CCCCCO)CC4CCCC(C[C@@H](OC)CC(C2)O3)O4)co1 (mixture of isomers) [racemic JJ-2-194] | 10 to 100 | Yeast: Inactive |  |  | 
C#CCCCCCCCC[C@H]1CC2CCCC(C[C@@H](OC)CC3C[C@@H](OC(=O)/C=C\CCc4coc(/C=C\CNC(=O)OC)n4)CC(CC(=O)O1)O3)O2 (mixture of isomers) [racemic JJ-2-286] | 1 to 10 | Yeast: Active |  |  | 
COC(=O)NC/C=C\c1nc(CC/C=C\C(=O)O[C@H]2CC3CC(=O)O[C@@H](CCCCCCCCc4cn(CCCNC(=O)OC(C)(C)C)nn4)CC4CCCC(C[C@@H](OC)CC(C2)O3)O4)co1 (mixture of isomers) [racemic JJ-2-288] | 10 to 100 | Yeast: Active |  |  | 
COC(=O)NC/C=C\c1nc(CC/C=C\C(=O)O[C@H]2CC3CC(=O)O[C@@H](/C=C/CC(C)C)CC4CCCC(C[C@@H](OC)CC(C2)O3)O4)co1 (single isomer, unassigned; (+)) [(+)-JJ-2-37] | 1 to 10 | Yeas: Active |  |  | 
COC(=O)NC/C=C\c1nc(CC/C=C\C(=O)OC2CC3CC(=O)O[C@H](/C=C/CC(C)C)C[C@H]4CCC(C)C(C[C@H](OC)CC(C2)O3)O4)co1 (some centres unmarked) [Leucascandrolide A] |  |  | 0.93 | 0.87 | 33
